Our source for the Ki values is patent US7528138B2, “Pyrazolo[1,5-a]pyrimidines useful as inhibitors of protein kinases” (Vertex Pharmaceuticals Incorporated, priority 2004, dated 2009).

The target in one experiment is T1, Itk (Homo sapiens, UniProt Q08881).
T1 sequence (Q08881 1-620): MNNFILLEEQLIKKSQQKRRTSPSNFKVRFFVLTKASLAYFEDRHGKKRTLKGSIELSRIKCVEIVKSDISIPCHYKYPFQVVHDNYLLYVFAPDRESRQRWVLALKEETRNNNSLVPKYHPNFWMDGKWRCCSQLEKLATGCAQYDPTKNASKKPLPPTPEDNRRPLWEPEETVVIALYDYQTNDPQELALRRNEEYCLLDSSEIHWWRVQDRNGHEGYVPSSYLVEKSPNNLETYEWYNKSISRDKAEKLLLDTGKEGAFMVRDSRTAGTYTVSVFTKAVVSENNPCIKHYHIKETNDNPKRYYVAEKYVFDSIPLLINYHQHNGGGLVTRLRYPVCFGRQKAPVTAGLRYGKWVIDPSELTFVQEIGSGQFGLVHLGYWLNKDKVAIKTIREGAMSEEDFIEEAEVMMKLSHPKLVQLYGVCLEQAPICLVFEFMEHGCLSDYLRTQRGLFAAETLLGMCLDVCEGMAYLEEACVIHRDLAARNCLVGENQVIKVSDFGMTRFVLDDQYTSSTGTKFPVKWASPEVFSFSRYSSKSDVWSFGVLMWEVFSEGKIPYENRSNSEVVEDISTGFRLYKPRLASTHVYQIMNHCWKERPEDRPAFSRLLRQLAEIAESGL
Put plainly: ITK Inhibition Assay (Radiometric), radioactive-phosphate incorporation. It is filed as biochemical. The settings on record: enzyme inhibition data (Ki), Table 11; radiometric or UV assay not stated. In short, it runs like this:
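Radiometric 33P incorporation into SAM68 peptide (D332-443) with filter capture and scintillation counting; 10 min pre-incubation then 10 min reaction at 25° C. IC50 format: 30 nM Itk, 15 μM ATP, 2 μM peptide, HEPES pH 7.5. Ki(app) format: 50 nM Itk, 7.5 μM ATP, 3 μM peptide, MOPS pH 7.0.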

A further experiment deals with c-Met (Homo sapiens, UniProt P08581). As to the kind of experiment: c-Met Inhibition Assay, coupled enzyme system. The settings on record: enzyme inhibition data (Ki), Table 11. The class given is biochemical. The gist of the method:
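Pyruvate kinase/lactate dehydrogenase-coupled NADH assay in HEPES pH 7.5 with 80 nM c-Met, 200 μM ATP and 10 μM polyGluTyr at 30° C. Compound (0.006–12.5 μM final, 12-point) preincubated 10 min before ATP start; rates over 10 min gave Ki.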

Sequence of c-Met (P08581 25-1390): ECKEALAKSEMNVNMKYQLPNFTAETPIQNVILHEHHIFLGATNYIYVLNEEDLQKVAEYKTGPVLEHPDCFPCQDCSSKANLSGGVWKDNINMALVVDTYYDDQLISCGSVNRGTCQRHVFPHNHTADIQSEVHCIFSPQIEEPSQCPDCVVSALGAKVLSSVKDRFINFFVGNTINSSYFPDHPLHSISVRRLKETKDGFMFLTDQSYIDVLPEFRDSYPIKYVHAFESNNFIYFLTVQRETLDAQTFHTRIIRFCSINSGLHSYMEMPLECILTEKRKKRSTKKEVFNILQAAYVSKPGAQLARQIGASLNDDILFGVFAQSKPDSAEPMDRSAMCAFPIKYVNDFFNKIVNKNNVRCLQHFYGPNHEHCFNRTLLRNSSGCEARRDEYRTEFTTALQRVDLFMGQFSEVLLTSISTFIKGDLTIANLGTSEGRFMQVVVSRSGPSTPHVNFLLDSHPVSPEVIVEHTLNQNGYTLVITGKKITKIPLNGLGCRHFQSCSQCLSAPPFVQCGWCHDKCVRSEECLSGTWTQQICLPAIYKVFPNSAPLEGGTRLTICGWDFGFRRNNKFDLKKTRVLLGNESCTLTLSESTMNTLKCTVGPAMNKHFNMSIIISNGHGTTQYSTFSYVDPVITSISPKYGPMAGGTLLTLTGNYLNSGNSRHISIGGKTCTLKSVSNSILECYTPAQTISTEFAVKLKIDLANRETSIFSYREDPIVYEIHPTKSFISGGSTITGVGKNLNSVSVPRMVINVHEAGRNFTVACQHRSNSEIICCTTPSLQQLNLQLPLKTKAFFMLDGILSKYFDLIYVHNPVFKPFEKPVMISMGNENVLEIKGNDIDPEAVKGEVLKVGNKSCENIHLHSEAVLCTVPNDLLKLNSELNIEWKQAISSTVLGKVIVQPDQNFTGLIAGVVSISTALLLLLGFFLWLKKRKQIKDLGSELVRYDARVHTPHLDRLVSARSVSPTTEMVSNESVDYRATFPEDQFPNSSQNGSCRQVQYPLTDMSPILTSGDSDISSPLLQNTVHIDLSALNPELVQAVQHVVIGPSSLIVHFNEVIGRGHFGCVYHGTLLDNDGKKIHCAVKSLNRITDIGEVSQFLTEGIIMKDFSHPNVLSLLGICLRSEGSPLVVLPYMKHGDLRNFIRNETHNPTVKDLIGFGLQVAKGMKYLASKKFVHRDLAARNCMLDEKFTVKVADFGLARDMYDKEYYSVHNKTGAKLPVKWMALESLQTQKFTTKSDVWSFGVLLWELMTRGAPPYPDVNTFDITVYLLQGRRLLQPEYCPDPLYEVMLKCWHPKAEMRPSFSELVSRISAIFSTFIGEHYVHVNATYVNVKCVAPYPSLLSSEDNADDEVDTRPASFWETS

The term Ki denotes a measure of affinity in units of concentration, obtained from inhibition or displacement. Turning to `CCN(CC)c1cc(-c2c(N)nn3cc(-c4ccncc4)cnc23)ncn1` [Compound V-180], the Ki at Itk and on c-Met was under 500 nM each time.

On to `CCN1CCN(C(=O)c2cccc(-c3cnc4c(-c5ccccn5)c(N)nn4c3)n2)CC1` [Compound V-102], for which the Ki was 500 to 5000 nM at Itk and under 500 nM at c-Met.

As to `Cc1cccnc1-c1c(N)nn2cc(-c3ccncc3)cnc12` [Compound V-135], the Ki at Itk and at c-Met was 500 to 5000 nM throughout.

With `NCc1cccc(-c2cnc3c(-c4ccccn4)c(N)nn3c2)c1` [Compound V-202], the Ki on Itk and at c-Met was under 500 nM each time.

Take `COc1ccc(-c2cnc3c(-c4ccncc4)c(N)nn3c2)cc1` [Compound V-219]: the inhibition constant Ki at Itk and at c-Met was 500 to 5000 nM throughout.

For the compound `Nc1nn2cc(-c3ccc(CN4CCNCC4)cc3)cnc2c1-c1ccccn1` [Compound V-217], the Ki on Itk and at c-Met was under 500 nM each time.

Consider `Nc1nn2cc(-c3ccncc3)cnc2c1-c1ncccc1OCc1ccccc1` [Compound V-134], for which the Ki at Itk and on c-Met was 500 to 5000 nM in each case.

In the case of `COCCNc1ccc(-c2cnc3c(-c4ccccn4)c(N)nn3c2)cn1` [Compound V-156], the values for the Ki at Itk and at c-Met were 500 to 5000 nM and under 500 nM, respectively.

In the case of `CCCN(CC)c1cc(-c2c(N)nn3cc(-c4ccncc4)cnc23)ncn1` [Compound V-244], the Ki on Itk and on c-Met was under 500 nM each time.

Consider `Nc1nn2cc(-c3ccncc3)cnc2c1-c1cc(NCC2CCCCC2)ncn1` [Compound V-184], for which the Ki on Itk and on c-Met was under 500 nM each time.

As to `CN(C)Cc1ccc(-c2cnc3c(-c4ccccn4)c(N)nn3c2)cc1` [Compound V-214], the Ki on Itk and on c-Met was under 500 nM each time.

With `Nc1nn2cc(-c3ccc(N4CCNCC4)nc3)cnc2c1-c1ccccn1` [Compound V-151], the Ki on Itk and on c-Met was under 500 nM each time.

With `CCN(CCC#N)C(=O)c1cccc(-c2cnc3c(-c4ccccn4)c(N)nn3c2)n1` [Compound V-116], the inhibition constant Ki at Itk was 500 to 5000 nM; at c-Met, under 500 nM.

As to `Nc1nn2cc(-c3ccc(N4CCC[C@H]4CN4CCCC4)nc3)cnc2c1-c1ccccn1` [Compound V-152], the Ki on Itk and on c-Met was under 500 nM in each case.

For `CC(C)N1CCN(c2ccc(-c3cnc4c(-c5ccccn5)c(N)nn4c3)cn2)CC1` [Compound V-146], the Ki at Itk and at c-Met was under 500 nM throughout.

As to `NC1NN2C=C(c3cccc(CN4CCCNCC4)c3)C=NC2=C1c1ccccn1` (stereo not drawn) [Compound V-228], the Ki on Itk and on c-Met was under 500 nM each time.

Take `Nc1nn2cc(-c3cccc(N4CCNCC4)c3)cnc2c1-c1ccccn1` [Compound V-222]: the inhibition constant Ki on Itk and at c-Met was under 500 nM each time.

As to `CN(CCC#N)C(=O)c1cccc(-c2cnc3c(-c4ccccn4)c(N)nn3c2)n1` [Compound V-114], the Ki on Itk was 500 to 5000 nM; on c-Met, under 500 nM.

With `CCN(CC)CCN(C)c1ccc(-c2cnc3c(-c4ccccn4)c(N)nn3c2)cn1` [Compound V-173], the Ki on Itk and at c-Met was under 500 nM in each case.

Take `Nc1nn2cc(-c3cccc(C(=O)N4CCC[C@@H]4CN4CCCC4)n3)cnc2c1-c1ccccn1` [Compound V-175]: the Ki at Itk is 500 to 5000 nM; at c-Met it was under 500 nM.

On to `NC1NN2C=C(c3cccc(CN4CC[C@H](N)C4)c3)C=NC2=C1c1ccccn1` (stereo partly drawn) [Compound V-227], for which the Ki on Itk and on c-Met was under 500 nM each time.

Turning to `COc1ccccc1-c1cnc2c(-c3ccccn3)c(N)nn2c1` [Compound V-14], the Ki on Itk and on c-Met was 500 to 5000 nM in each case.

Turning to `CNCCCN(C)C(=O)c1ccc(-c2cnc3c(-c4ccccn4)c(N)nn3c2)cc1` [Compound V-191], the Ki at Itk and at c-Met was under 500 nM throughout.

As to `Nc1nn2cc(-c3ccc(C(=O)NC4CCCO4)cn3)cnc2c1-c1ccccn1` (stereo not drawn) [Compound V-96], the Ki at Itk is 500 to 5000 nM; at c-Met, under 500 nM.
